Read-outs that look alike come from different tables or passages of the source. Values belong to the molecule of their own block, whether it stands above or below them.
Legend:
[1] = test system: IL-2 release from CD4+ T cells; assay: IL-2 release from CD4+ T cells using HTRF; format: cell-based; conditions: read-out: inhibition of IL-2 release from CD4+ T cells
[2] = test system: Anti-CD3e antibody induced CD4+ T cell cytokine-IL-2, IL-4 and IFN-γ production; assay: Anti-CD3e antibody induced CD4+ T cell cytokine production in male BALB/c mice; format: in vivo; conditions: compared to Positive control; 1.5 hrs post-antibody treatment
Method: 1H-pyrrolo[2,3-b]pyridine series of compounds Mice IL-2, IL-4 and IFN-g: 60 mg/Kg is highly efficacious. There is a significant increase in serum IL-2, IL-4 and IFN-gamma (P<0.001) of Positive Control animals compared to negative control animals.

JAK3 = JAK3 (Homo sapiens (Human), UniProt P52333); assay: JAK3 kinase assay (radiometric filter binding, 10 μM ATP); format: biochemical
[3] = Pharmacokinetics in male Sprague Dawley rats; format: in vivo; conditions: rat, plasma
Method: The bio-availability and pharmacokinetics of some compounds of the present invention were examined in male Sprague Dawley rats. A total of 6 male rats were used in the study. The study was performed using parallel design (n=3) with serial sampling.
Dose formulations were prepared on the day of doing. Blood samples were collected at 0.083 (only IV), 0.25, 0.5, 1, 2, 4, 8 and 24 h post-dose. At each time point, approximately 0.2 mL of blood was withdrawn from each cannulated rat through jugular vein and transferred to a pre-labeled microfuge tube containing 20 μL of 200 mm K2EDTA permL of blood. Following collection of blood sample, equal volume of heparinized saline was flushed into jugular vein of rat. The blood samples were centrifuged at 5000 g for 5 min at 4±2° C. The plasma was separated within 30 min of scheduled time and stored below −60° C. until bio-analysis. […] The pharmacokinetic parameters for select EXAMPLES were calculated using the non-compartmental analysis tool of validated WinNonlin® software (Version 5.2).

ITK = ITK (Homo sapiens (Human), UniProt Q08881); assay: ITK kinase assay (radiometric filter binding, 10 μM ATP); format: biochemical
T cell receptor = assay: SelectScreen cell-based pathway profiling, T cell receptor, NFAT-bla Jurkat, anti-CD3:CD28 stimulated; conditions: NFAT-bla Jurkat cells, anti-CD3:CD28 stim
[4] = test system: Established Type II Collagen Arthritis; assay: 11 day mouse established type II collagen arthritis, PO, BID; format: in vivo, DBA/1OlaHsd Mouse
Text: Effects of 1H-pyrrolo[2,3-b]pyridine Series of Compounds Administered PO, BID in 11 Day DBA/1OlaHsd Mouse Established Type II Collagen Arthritis

JAK2/STAT5 = assay: SelectScreen cell-based pathway profiling, JAK2/STAT5, irf1-bla TF1, EPO stimulated; conditions: irf1-bla TF1 cells, EPO stim
JAK/STAT [5] = assay: SelectScreen cell-based pathway profiling, JAK/STAT, SIE-bla HEK 293T, IL-6 stimulated; conditions: SIE-bla HEK 293T cells, IL-6 stim
JAK/STAT [6] = assay: SelectScreen cell-based pathway profiling, JAK/STAT, SIE-bla HEK 293T, IFN-gamma stimulated; conditions: SIE-bla HEK 293T cells, IFN-gamma stim
IL-4/STAT6 = assay: SelectScreen cell-based pathway profiling, IL-4/STAT6, STAT6-bla RA1, IL-4 stimulated; conditions: STAT6-bla RA1 cells, IL-4 stim, 10-point titration
[7] = IV 5 mg/kg, solution, male Sprague Dawley rats, mean±SD, n=3
[8] = PO 20 mg/kg, solution, male Sprague Dawley rats, mean±SD, n=3
[9] = 10-dose IC50 mode, 10 μM ATP, read-out: JAK3 kinase inhibition
[10] = 10-dose IC50 mode, 10 μM ATP, read-out: ITK kinase inhibition

Sequence of JAK3 (P52333 whole entry): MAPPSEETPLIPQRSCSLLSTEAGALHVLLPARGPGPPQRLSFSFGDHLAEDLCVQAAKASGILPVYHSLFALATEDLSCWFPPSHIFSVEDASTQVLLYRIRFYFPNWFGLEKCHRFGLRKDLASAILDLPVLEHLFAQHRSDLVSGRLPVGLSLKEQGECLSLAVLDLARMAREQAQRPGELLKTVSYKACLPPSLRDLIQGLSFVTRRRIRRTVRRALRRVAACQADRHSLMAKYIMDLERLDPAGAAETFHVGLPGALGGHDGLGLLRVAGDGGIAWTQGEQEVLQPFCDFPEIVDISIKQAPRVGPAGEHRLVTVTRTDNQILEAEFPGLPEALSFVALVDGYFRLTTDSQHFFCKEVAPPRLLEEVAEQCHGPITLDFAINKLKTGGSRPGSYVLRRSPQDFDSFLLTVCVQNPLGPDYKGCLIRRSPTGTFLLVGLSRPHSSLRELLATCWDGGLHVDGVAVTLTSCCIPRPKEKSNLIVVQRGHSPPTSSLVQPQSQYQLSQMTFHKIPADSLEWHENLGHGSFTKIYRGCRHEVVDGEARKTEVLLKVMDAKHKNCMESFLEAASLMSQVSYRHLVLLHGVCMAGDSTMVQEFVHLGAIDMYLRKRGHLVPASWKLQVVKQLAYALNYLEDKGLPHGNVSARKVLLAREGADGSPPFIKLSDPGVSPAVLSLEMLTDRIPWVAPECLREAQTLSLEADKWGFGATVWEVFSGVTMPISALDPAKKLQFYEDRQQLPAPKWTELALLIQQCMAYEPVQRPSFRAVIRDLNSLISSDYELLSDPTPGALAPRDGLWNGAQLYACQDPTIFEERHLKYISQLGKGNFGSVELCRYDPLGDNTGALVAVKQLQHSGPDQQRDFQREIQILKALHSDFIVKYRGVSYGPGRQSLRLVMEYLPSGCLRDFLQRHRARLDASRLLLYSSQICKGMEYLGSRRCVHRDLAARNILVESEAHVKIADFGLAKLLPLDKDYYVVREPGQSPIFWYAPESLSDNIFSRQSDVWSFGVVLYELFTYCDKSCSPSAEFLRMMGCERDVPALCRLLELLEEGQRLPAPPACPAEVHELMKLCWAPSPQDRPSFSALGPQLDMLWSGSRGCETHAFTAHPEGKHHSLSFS
Sequence of ITK (Q08881 whole entry): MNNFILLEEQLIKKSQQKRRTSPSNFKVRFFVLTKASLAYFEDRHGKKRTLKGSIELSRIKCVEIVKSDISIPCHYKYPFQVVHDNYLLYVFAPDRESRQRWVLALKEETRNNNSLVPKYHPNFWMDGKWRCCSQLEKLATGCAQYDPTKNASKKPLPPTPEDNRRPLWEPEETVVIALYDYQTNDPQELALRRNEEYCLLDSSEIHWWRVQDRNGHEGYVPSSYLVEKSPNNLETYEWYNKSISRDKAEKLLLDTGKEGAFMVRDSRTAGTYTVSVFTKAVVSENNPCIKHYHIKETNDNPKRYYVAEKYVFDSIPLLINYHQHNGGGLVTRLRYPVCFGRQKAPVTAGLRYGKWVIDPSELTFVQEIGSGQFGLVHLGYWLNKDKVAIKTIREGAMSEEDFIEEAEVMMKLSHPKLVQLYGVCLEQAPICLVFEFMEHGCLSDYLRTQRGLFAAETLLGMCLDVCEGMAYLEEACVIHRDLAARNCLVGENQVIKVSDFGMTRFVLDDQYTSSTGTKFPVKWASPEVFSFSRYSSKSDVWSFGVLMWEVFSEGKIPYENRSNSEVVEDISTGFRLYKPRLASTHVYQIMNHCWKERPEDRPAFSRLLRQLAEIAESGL

IC50 (JAK3; [9]): < 0.1 µM
IC50 (ITK; [10]): < 0.1 µM
Molecule: COc1cc(F)c(C)cc1-c1c[nH]c2ncc(-c3cc(F)cc(NC(=O)/C=C/CN(C)C)c3C)cc12 [Example 172, (E)-4-(dimethylamino)-N-(5-fluoro-3-(3-(4-fluoro-2-methoxy-5-methylphenyl)-1H-pyrrolo[2,3-b]pyridin-5-yl)-2-methylphenyl)but-2-enamide]

IC50 (JAK3; [9]): < 0.1 µM
IC50 (ITK; [10]): < 0.1 µM
Molecule: COc1cc(F)c(C)cc1-c1c[nH]c2ncc(-c3cc(F)cc(NC(=O)/C(C)=C/C(C)(C)C)c3C)cc12 [Example 173, (E)-N-(5-fluoro-3-(3-(4-fluoro-2-methoxy-5-methylphenyl)-1H-pyrrolo[2,3-b]pyridin-5-yl)-2-methylphenyl)-2,4,4-trimethylpent-2-enamide]

IC50 (T cell receptor): 0.615 µM
Molecule: Cn1cc(C2=C(c3cn(CCCSC(=N)N)c4ccccc34)C(=O)NC2=O)c2ccccc21 [Ro-31-8220]

Second part, the molecule before the results:

Molecule: COc1cc(C)c(Sc2cnc(NC(=O)c3ccc(CNC(C)C(C)(C)C)cc3)s2)cc1C(=O)N1CCN(C(C)=O)CC1 (stereo not shown) [BMS509744]
IC50 [1]: 0.35 µM

Molecule: C[C@@H]1C[C@H]2[C@@H]3CCC4=CC(=O)C=C[C@]4(C)[C@@]3(F)[C@@H](O)C[C@]2(C)[C@@]1(O)C(=O)CO [Dexamethasone]
serum IFN-gamma [2]: significant decrease
serum IL-2 [2]: significant decrease
serum IL-4 [2]: significant decrease

Molecule: C=CC(=O)Nc1cccc(-c2cnc3[nH]cc(Cl)c3c2)c1 [Example 7, N-(3-(3-chloro-1H-pyrrolo[2,3-b]pyridin-5-yl)phenyl)acrylamide]
IC50 (JAK3; read-out: biochemical IC50 against JAK3): 0.1 to 1 µM
bioavailability ([3]; male, Sprague Dawley, PO 20 mg/kg vs IV 5 mg/kg, AUCinf and nominal doses used, read-out: F (bioavailability)): 15%
AUC(0-inf) [3, 7]: 2.62 ± 0.647 µg·h/mL
AUC(0-t) [3, 7]: 2.6 µg·h/mL
clearance [3, 7]: 2.01 ± 0.574 L/h/kg
half-life [3, 7]: 32.4 ± 3 min
Cmax ([3]; IV 5 mg/kg, solution, male Sprague Dawley rats, mean±SD, n=3, read-out: Cmax (back extrapolated concentration at time zero)): 3.85 µg/mL
Vd ([3]; IV 5 mg/kg, solution, male Sprague Dawley rats, mean±SD, n=3, read-out: Vss): 1.61 ± 0.28 L/kg
AUC(0-inf) [3, 8]: 1.6 ± 0.183 µg·h/mL
AUC(0-t) [3, 8]: 1.58 µg·h/mL
Cmax ([3]; PO 20 mg/kg, solution, male Sprague Dawley rats, mean±SD, n=3, read-out: Cmax): 0.853 µg/mL
Tmax ([3]; PO 20 mg/kg, solution, male Sprague Dawley rats, median (range), n=3): 15 min
IC50 (ITK; read-out: biochemical IC50 against ITK): 0.1 to 1 µM

Molecule: C[C@@H]1CCN(C(=O)CC#N)C[C@@H]1N(C)c1ncnc2[nH]ccc12 [Tofacitinib]
effectiveness, suppression of the inflammatory response ([4]; collagen-induced arthritis in mice): 97%
body weight ([4]; series 100 mg/kg group, Tofacitinib 60 mg/Kg): body weight change from day 1
fever ([4]; treated mice, in vivo studies): had fever
serum IFN-gamma [2]: significant decrease
serum IL-2 [2]: significant decrease
serum IL-4 [2]: significant decrease

Molecule: (E)-N-(3-(3-methyl-1H- pyrazolo[3,4-b]pyridin-5- yl)phenyl)acrylamide [Example 51]
IC50 (JAK3; read-out: JAK3 kinase inhibition): > 0.1 µM
IC50 (ITK; read-out: ITK kinase inhibition): > 0.1 µM

Molecule: JAK Inhibitor I
IC50 (JAK2/STAT5): 0.00692 µM
IC50 (JAK/STAT [5]): 0.022 µM
IC50 (JAK/STAT [6]): 0.0835 µM
IC50 (IL-4/STAT6): 0.0145 µM
